We go through eight molecules from PubChem BioAssay AID1259407 (Chemical Carcinogenesis Research Information System (CCRIS), 2018).

In the data set the test system is CCRIS mutagenicity, Ames/micronucleus/aberration tests. Description: CCRIS mutagenicity studies.
Where [1] appears, read: Test System: AMES SALMONELLA TYPHIMURIUM, Strain/Indicator: TA98, Metabolic Activation: NONE, Method: STANDARD PLATE.
Where [2] appears, read: Test System: AMES SALMONELLA TYPHIMURIUM, Strain/Indicator: TA98, Metabolic Activation: RAT, LIVER, S-9, AROCLOR 1254, Method: STANDARD PLATE.
[3] abbreviates: Test System: AMES SALMONELLA TYPHIMURIUM, Strain/Indicator: TA100, Metabolic Activation: NONE, Method: STANDARD PLATE.
Where [4] appears, read: Test System: AMES SALMONELLA TYPHIMURIUM, Strain/Indicator: TA100, Metabolic Activation: RAT, LIVER, S-9, AROCLOR 1254, Method: STANDARD PLATE.
Where [5] appears, read: Test System: AMES SALMONELLA TYPHIMURIUM, Strain/Indicator: TA1535, Metabolic Activation: NONE, Method: STANDARD PLATE.
Where [6] appears, read: Test System: AMES SALMONELLA TYPHIMURIUM, Strain/Indicator: TA1535, Metabolic Activation: RAT, LIVER, S-9, AROCLOR 1254, Method: STANDARD PLATE.
Setting [7] is: Test System: AMES SALMONELLA TYPHIMURIUM, Strain/Indicator: TA1537, Metabolic Activation: NONE, Method: STANDARD PLATE.
Setting [8] is: Test System: AMES SALMONELLA TYPHIMURIUM, Strain/Indicator: TA1537, Metabolic Activation: RAT, LIVER, S-9, AROCLOR 1254, Method: STANDARD PLATE.
The mark [9] stands for this setting: Test System: AMES SALMONELLA TYPHIMURIUM, Strain/Indicator: TA1538, Metabolic Activation: NONE, Method: STANDARD PLATE.
The mark [10] stands for this setting: Test System: AMES SALMONELLA TYPHIMURIUM, Strain/Indicator: TA1538, Metabolic Activation: RAT, LIVER, S-9, AROCLOR 1254, Method: STANDARD PLATE.

The source made the active and inactive calls. No rule for the calls is given here.

Consider `C=C(C)C(=O)OCCCCCCOC(=O)C(=C)C`, for which the mutagenic call is “inactive; negative” under setting [1]; “inactive; negative” under setting [2]; “inactive; negative” (Test System: AMES SALMONELLA TYPHIMURIUM, Strain/Indicator: TA98, Metabolic Activation: RAT, LIVER, S-9, SODIUM PHENOBARBITAL, Method: STANDARD PLATE); “inactive; negative” under setting [3]; “inactive; negative” under setting [4]; “inactive; negative” (Test System: AMES SALMONELLA TYPHIMURIUM, Strain/Indicator: TA100, Metabolic Activation: RAT, LIVER, S-9, SODIUM PHENOBARBITAL, Method: STANDARD PLATE). For the same molecule, the mutagenic call is “inactive; negative” under setting [5]; “inactive; negative” under setting [6]; “inactive; negative” (Test System: AMES SALMONELLA TYPHIMURIUM, Strain/Indicator: TA1535, Metabolic Activation: RAT, LIVER, S-9, SODIUM PHENOBARBITAL, Method: STANDARD PLATE); “inactive; negative” under setting [7]; “inactive; negative” under setting [8]; “inactive; negative” (Test System: AMES SALMONELLA TYPHIMURIUM, Strain/Indicator: TA1537, Metabolic Activation: RAT, LIVER, S-9, SODIUM PHENOBARBITAL, Method: STANDARD PLATE). Moreover, the mutagenic call under setting [9] is “inactive; negative”; the mutagenic call under setting [10] was “inactive; negative”; the mutagenic call (Test System: AMES SALMONELLA TYPHIMURIUM, Strain/Indicator: TA1538, Metabolic Activation: RAT, LIVER, S-9, SODIUM PHENOBARBITAL, Method: STANDARD PLATE) is “inactive; negative”.
In the case of `O=C(O)CN(CC(=O)O)C1C[C@H]1N(CC(=O)O)CC(=O)O` (stereo partly specified), the mutagenic call (Test System: CHINESE HAMSTER V-79, Strain/Indicator: V-79/OUABAIN, Metabolic Activation: NONE, Method: STANDARD PLATE) is “active; positive” and the mutagenic call (Test System: UDS RODENT CELLS, Strain/Indicator: THY INCORP (NON-S-PHASE), Metabolic Activation: NONE, Method: AUTORADIOGRAPHY) is “active; positive”.
In the case of `C[N+](C)(C)Cc1ccccc1`, the mutagenic call was “inactive; negative” (Test System: AMES SALMONELLA TYPHIMURIUM, Strain/Indicator: TA97, Metabolic Activation: HAMSTER, LIVER, S-9, AROCLOR 1254 (10 OR 30%), Method: PREINCUBATION); “inactive; negative” (Test System: AMES SALMONELLA TYPHIMURIUM, Strain/Indicator: TA97, Metabolic Activation: NONE, Method: PREINCUBATION); “inactive; negative” (Test System: AMES SALMONELLA TYPHIMURIUM, Strain/Indicator: TA97, Metabolic Activation: RAT, LIVER, S-9, AROCLOR 1254 (10 OR 30%), Method: PREINCUBATION); “inactive; negative” (Test System: AMES SALMONELLA TYPHIMURIUM, Strain/Indicator: TA98, Metabolic Activation: HAMSTER, LIVER, S-9, AROCLOR 1254 (10 OR 30%), Method: PREINCUBATION); “inactive; negative” (Test System: AMES SALMONELLA TYPHIMURIUM, Strain/Indicator: TA98, Metabolic Activation: NONE, Method: PREINCUBATION); “inactive; negative” (Test System: AMES SALMONELLA TYPHIMURIUM, Strain/Indicator: TA98, Metabolic Activation: RAT, LIVER, S-9, AROCLOR 1254 (10 OR 30%), Method: PREINCUBATION). Further, the mutagenic call runs as follows: (Test System: AMES SALMONELLA TYPHIMURIUM, Strain/Indicator: TA100, Metabolic Activation: HAMSTER, LIVER, S-9, AROCLOR 1254 (10 OR 30%), Method: PREINCUBATION) “inactive; negative”; (Test System: AMES SALMONELLA TYPHIMURIUM, Strain/Indicator: TA100, Metabolic Activation: NONE, Method: PREINCUBATION) “inactive; negative”; (Test System: AMES SALMONELLA TYPHIMURIUM, Strain/Indicator: TA100, Metabolic Activation: RAT, LIVER, S-9, AROCLOR 1254 (10 OR 30%), Method: PREINCUBATION) “inactive; negative”; (Test System: AMES SALMONELLA TYPHIMURIUM, Strain/Indicator: TA1535, Metabolic Activation: HAMSTER, LIVER, S-9, AROCLOR 1254 (10 OR 30%), Method: PREINCUBATION) “inactive; negative”; (Test System: AMES SALMONELLA TYPHIMURIUM, Strain/Indicator: TA1535, Metabolic Activation: NONE, Method: PREINCUBATION) “inactive; negative”; (Test System: AMES SALMONELLA TYPHIMURIUM, Strain/Indicator: TA1535, Metabolic Activation: RAT, LIVER, S-9, AROCLOR 1254 (10 OR 30%), Method: PREINCUBATION) “inactive; negative”.
`C1CSCCS1`: the mutagenic call under setting [2] is “inactive; negative”; the mutagenic call (Test System: AMES SALMONELLA TYPHIMURIUM, Strain/Indicator: TA98, Metabolic Activation: S-9, Method: STANDARD PLATE) is “inactive; negative”; the mutagenic call under setting [4] is “inactive; negative”; the mutagenic call (Test System: AMES SALMONELLA TYPHIMURIUM, Strain/Indicator: TA100, Metabolic Activation: S-9, Method: STANDARD PLATE) is “inactive; negative”; the mutagenic call under setting [5] was “inactive; negative”; the mutagenic call (Test System: AMES SALMONELLA TYPHIMURIUM, Strain/Indicator: TA1535, Metabolic Activation: S-9, Method: STANDARD PLATE) was “inactive; negative”. For the same molecule, the mutagenic call reads like this: under setting [7], “inactive; negative”; (Test System: AMES SALMONELLA TYPHIMURIUM, Strain/Indicator: TA1537, Metabolic Activation: S-9, Method: STANDARD PLATE) “inactive; negative”; under setting [9], “inactive; negative”; (Test System: AMES SALMONELLA TYPHIMURIUM, Strain/Indicator: TA1538, Metabolic Activation: S-9, Method: STANDARD PLATE) “inactive; negative”.
With `CCN(COC(C)=O)N=O`, the mutagenic call (Test System: UDS RAT UROTHELIAL CELLS, Strain/Indicator: THY INCORP, Metabolic Activation: NONE) was “active; positive”.
In the case of `O=Nc1ccc(Oc2ccccc2)cc1`, the mutagenic call runs as follows: under setting [1], “active; positive”; (Test System: AMES SALMONELLA TYPHIMURIUM, Strain/Indicator: TA100, Metabolic Activation: GUINEA PIG, LIVER, S-9, KANECLOR 500, Method: STANDARD PLATE) “active; positive”.
With `O=C(O)CCCC[C@@H]1SC[C@@H]2NC(=O)N[C@@H]21`, the mutagenic call was “inactive; negative” under setting [1]; “inactive; negative” under setting [2]; “inactive; negative” under setting [3]; “inactive; negative” under setting [4]; “inactive; negative” under setting [5]; “inactive; negative” under setting [6]. The mutagenic call under setting [7] is “inactive; negative”; the mutagenic call under setting [8] was “inactive; negative”; the mutagenic call under setting [9] is “inactive; negative”; the mutagenic call under setting [10] is “inactive; negative”; the mutagenic call (Test System: E. COLI, Strain/Indicator: WP2, Metabolic Activation: NONE, Method: STANDARD PLATE) is “inactive; negative”; the mutagenic call (Test System: E. COLI, Strain/Indicator: WP2, Metabolic Activation: RAT, LIVER, S-9, AROCLOR 1254, Method: STANDARD PLATE) was “inactive; negative”.
`O=P(O)(OCC(Br)CBr)OCC(Br)CBr` (stereo unspecified): the mutagenic call under setting [4] was “active; positive” and the mutagenic call under setting [6] is “active; positive”.
